Data: US20160263214A1, “CALCIUM FLUORIDE COMPOSITIONS” (GLAXOSMITHKLINE BIOLOGICALS S.A., priority 2013, published 2016)

Test: Composite organic content by thermogravimetry
Assay type: physicochemical
Conditions: for Weight losses (single cell, temperature range not attributable): pure organic reference, one cell only; for Weight losses Between 0 and 200° C. under N2 / Weight losses Between 200 et 600° C. under N2 / Weight losses Between 600 et 800° C. under Air: thermogravimetry, dry material
Protocol: Dry material sample were submitted to thermogravimetry. Weight losses from RT to 600° C. under N2 and from 600° C. to 800° C. under O2 were recorded and represent by difference the quantity of burned organic material.

SMILES | Weight losses (single cell, temperature range not attributable) [%] | Weight losses Between 0 and 200° C. under N2 [%] | Weight losses Between 200 et 600° C. under N2 [%] | Weight losses Between 600 et 800° C. under Air [%]
O=C(O)CCCCC(=O)O [Adipic acid] | 100 | – | – | –
O=c1[nH]cnc2nc[nH]c12 [Hypoxanthine] | – | 0.2 | 50.6 | 49.2
Cc1c[nH]c(=O)[nH]c1=O [Thymine] | 100 | – | – | –
O=c1[nH]c(=O)c2[nH]c(=O)[nH]c2[nH]1 [Uric acid] | – | 0.1 | 74.6 | 25.3
